Assay results from patent publication US10638756B2, “Molecules having pesticidal utility, and intermediates, compositions, and processes, related thereto” (Dow AgroSciences LLC, priority 2017, dated 2020).

Experiments:
Format in all cases: in vivo
[1] = system: Yellow Fever Mosquito (Aedes aegypti); conditions: about 1 day-old larvae, 3 days, scored on mortality
Protocol: Certain molecules disclosed in this document were tested against YFM using procedures described in the following paragraph. In the reporting of the results, the “GPA & YFM Rating Table” was used (See Table Section).
Master plates containing 400 μg of a molecule dissolved in 100 μL of dimethyl sulfoxide (DMSO) (equivalent to a 4000 ppm solution) are used. A master plate of assembled molecules contains 15 μL per well. To this plate, 135 μL of a 90:10 water/acetone mixture is added to each well. A robot (Biomek® NXP Laboratory Automation Workstation) is programmed to dispense 15 μL aspirations from the master plate into an empty 96-well shallow plate (“daughter” plate). There are 6 reps (“daughter” plates) created per master. The created “daughter” plates are then immediately infested with YFM larvae.
The day before plates are to be treated, mosquito eggs are placed in Millipore water containing liver powder to begin hatching (4 g. into 400 mL). After the “daughter” plates are created using the robot, they are infested with 220 μL of the liver powder/larval mosquito mixture (about 1 day-old larvae). After plates are infested with mosquito larvae, a non-evaporative lid is used to cover the plate to reduce drying. Plates are held at room temperature for 3 days prior to grading. After 3 days, each well is observed and scored based on mortality. The results are indicated in the table entitled “Table ABC: Biological Results” (See Table Section).

[2] = system: Beet Armyworm (Spodoptera exigua); test: Bioassay on Beet Armyworm (BAW), 128-well diet tray assay; conditions: Spodoptera exigua, 168 h; 50 μg/cm^2 on artificial diet, second instar larvae, five to seven days; read-out: BAW % Control (or Mortality) rating
[3] = system: Cabbage Looper (Trichoplusia ni); test: Bioassay on Cabbage Looper (CL), 128-well diet tray assay; conditions: 168 h, 50 μg/cm^2 on artificial diet, second instar larvae, five to seven days, read-out: CL % Control (or Mortality) rating
How it was run: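 Second-instar larvae (1–5 per well) placed on artificial diet surface-treated with 50 μg/cm^2 test molecule applied in 90:10 acetone-water and dried. Held at 25° C., 14:10 light-dark, for five to seven days. Percent mortality scored per well and averaged over eight wells.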

SMILES | YFM % Control (or Mortality) rating [1] | mortality at 50 µg/cm2 [2] [%] | mortality at 50 µg/cm2 [3] [%]
CCN(NC(=O)c1ccc(/C(F)=C/C(c2cc(Cl)c(Cl)c(Cl)c2)C(F)(F)F)cc1C(F)(F)F)c1ncccn1 (centres unmarked) [F130, (Z)—N′-Ethyl-N′-(pyrimidin-2-yl)-4-(1,4,4,4-tetrafluoro-3-(3,4,5-trichlorophenyl)but-1-en-1-yl)-2-(trifluoromethyl)benzohydrazide] | A (80-100) | 50 to 100 | 50 to 100
O=C(NNc1c(F)cccc1Cl)c1ccc(/C(F)=C/C(c2cc(Cl)c(Cl)c(Cl)c2)C(F)(F)F)cc1C(F)(F)F (centres unmarked) [F1, (Z)—N′-(2-chloro-6-fluorophenyl)-4-(1,4,4,4-tetrafluoro-3-(3,4,5-trichlorophenyl)but-1-en-1-yl)-2-(trifluoromethyl)benzohydrazide] | A (80-100) | 50 to 100 | 50 to 100
O=C(NNCc1ccccc1)c1ccc(/C(F)=C/C(c2cc(Cl)c(Cl)c(Cl)c2)C(F)(F)F)cc1C(F)(F)F (centres unmarked) [F54, (Z)—N′-Benzyl-4-(1,4,4,4-tetrafluoro-3-(3,4,5-trichlorophenyl)but-1-en-1-yl)-2-(trifluoromethyl)benzohydrazide] | A (80-100) | 50 to 100 | 50 to 100
O=C(NNc1ccc(F)cc1)c1ccc(/C(F)=C/C(c2cc(Cl)c(Cl)c(Cl)c2)C(F)(F)F)cc1C(F)(F)F (centres unmarked) [F52] | A (80-100) | 50 to 100 | 50 to 100
O=C(NN1CCS(=O)(=O)CC1)c1ccc(/C(F)=C/C(c2cc(Cl)c(Cl)c(Cl)c2)C(F)(F)F)cc1C(F)(F)F (centres unmarked) [F122, (Z)—N-(1,1-dioxidothiomorpholino)-4-(1,4,4,4-tetrafluoro-3-(3,4,5-trichlorophenyl)but-1-en-1-yl)-2-(trifluoromethyl)benzamide] | D (No activity noticed in this bioassay) | 50 to 100 | 50 to 100
Cc1cc(F)ccc1NNC(=O)c1ccc(/C(F)=C/C(c2cc(Cl)c(Cl)c(Cl)c2)C(F)(F)F)cc1C(F)(F)F (centres unmarked) [F35, (Z)—N′-(4-Fluoro-2-methylphenyl)-4-(1,4,4,4-tetrafluoro-3-(3,4,5-trichlorophenyl)but-1-en-1-yl)-2-(trifluoromethyl)benzohydrazide] | A (80-100) | 50 to 100 | 50 to 100
O=C(NNc1ncccn1)c1ccc(/C(F)=C/C(c2cc(Cl)cc(Cl)c2)C(F)(F)F)cc1C(F)(F)F (centres unmarked) [F56, (Z)-4-(3-(3,5-Dichlorophenyl)-1,4,4,4-tetrafluorobut-1-en-1-yl)-N′-(pyrimidin-2-yl)-2-(trifluoromethyl)benzohydrazide] | A (80-100) | 50 to 100 | 50 to 100
CN(NC(=O)c1ccc(/C(F)=C/C(c2cc(Cl)c(Cl)c(Cl)c2)C(F)(F)F)cc1C(F)(F)F)c1nccs1 (centres unmarked) [F158, (Z)—N′-methyl-4-(1,4,4,4-tetrafluoro-3-(3,4,5-trichlorophenyl)but-1-en-1-yl)-N′-(thiazol-2-yl)-2-(trifluoromethyl)benzohydrazide] | A (80-100) | 50 to 100 | 50 to 100
O=C(NNc1ncccn1)c1ccc(/C(F)=C/C(c2cc(Cl)c(Br)c(Cl)c2)C(F)(F)F)cc1C(F)(F)F (centres unmarked) [F172, (Z)-4-(3-(4-Bromo-3,5-dichlorophenyl)-1,4,4,4-tetrafluorobut-1-en-1-yl)-N′-(pyrimidin-2-yl)-2-(trifluoromethyl)benzohydrazide] | A (80-100) | 50 to 100 | 50 to 100
N#Cc1cccc(NNC(=O)c2ccc(/C(F)=C/C(c3cc(Cl)c(Cl)c(Cl)c3)C(F)(F)F)cc2C(F)(F)F)c1 (centres unmarked) [F100, (Z)—N′-(3-Cyanophenyl)-4-(1,4,4,4-tetrafluoro-3-(3,4,5-trichlorophenyl)but-1-en-1-yl)-2-(trifluoromethyl)benzohydrazide] | A (80-100) | 50 to 100 | 50 to 100
COc1ccc(NNC(=O)c2ccc(/C(F)=C/C(c3cc(Cl)c(Cl)c(Cl)c3)C(F)(F)F)cc2C(F)(F)F)cc1 (centres unmarked) [F126, (Z)—N′-(4-Methoxyphenyl)-4-(1,4,4,4-tetrafluoro-3-(3,4,5-trichlorophenyl)but-1-en-1-yl)-2-(trifluoromethyl)benzohydrazide] | A (80-100) | 50 to 100 | 50 to 100
O=C(NNc1ncccn1)c1ccc(/C(F)=C/C(c2ccc(Br)c(Cl)c2)C(F)(F)F)cc1C(F)(F)F (centres unmarked) [F16, (Z)-4-(3-(4-Bromo-3-chlorophenyl)-1,4,4,4-tetrafluorobut-1-en-1-yl)-N′-(pyrimidin-2-yl)-2-(trifluoromethyl)benzohydrazide] | A (80-100) | 50 to 100 | 50 to 100
O=C(NNc1cccc(C(F)(F)F)c1)c1ccc(/C(F)=C/C(c2cc(Cl)c(Cl)c(Cl)c2)C(F)(F)F)cc1C(F)(F)F (centres unmarked) [F3, (Z)-4-(1,4,4,4-Tetrafluoro-3-(3,4,5-trichlorophenyl)but-1-en-1-yl)-2-(trifluoromethyl)-N′-(3-(trifluoromethyl)phenyl)benzohydrazide] | A (80-100) | 50 to 100 | 50 to 100
O=C(NNc1cc(F)ccc1F)c1ccc(/C(F)=C/C(c2cc(Cl)c(Cl)c(Cl)c2)C(F)(F)F)cc1C(F)(F)F (centres unmarked) [F134, (Z)—N′-(2,5-Difluorophenyl)-4-(1,4,4,4-tetrafluoro-3-(3,4,5-trichlorophenyl)but-1-en-1-yl)-2-(trifluoromethyl)benzohydrazide] | A (80-100) | 50 to 100 | 50 to 100
N#Cc1ccc(NNC(=O)c2ccc(/C(F)=C/C(c3cc(Cl)c(Cl)c(Cl)c3)C(F)(F)F)cc2C(F)(F)F)cc1 (centres unmarked) [F111, (Z)—N′-(4-Cyanophenyl)-4-(1,4,4,4-tetrafluoro-3-(3,4,5-trichlorophenyl)but-1-en-1-yl)-2-(trifluoromethyl)benzohydrazide] | A (80-100) | 50 to 100 | 50 to 100
O=C(NNc1cccc(F)n1)c1ccc(/C(F)=C/C(c2cc(Cl)c(Cl)c(Cl)c2)C(F)(F)F)cc1C(F)(F)F (centres unmarked) [F34, (Z)—N′-(6-Fluoropyridin-2-yl)-4-(1,4,4,4-tetrafluoro-3-(3,4,5-trichlorophenyl)but-1-en-1-yl)-2-(trifluoromethyl)benzohydrazide] | – | 50 to 100 | 50 to 100
CN(NC(=O)c1ccc(/C(F)=C/C(c2ccc(F)c(C(F)(F)F)c2)C(F)(F)F)cc1C(F)(F)F)c1ncccn1 (centres unmarked) [F113, (Z)—N′-Methyl-N′-(pyrimidin-2-yl)-4-(1,4,4,4-tetrafluoro-3-(4-fluoro-3-(trifluoromethyl)phenyl)but-1-en-1-yl)-2-(trifluoromethyl)benzohydrazide] | – | 50 to 100 | 50 to 100
O=C(NNc1ncccn1)c1ccc(/C(F)=C/C(c2cc(Cl)cc(C(F)(F)F)c2)C(F)(F)F)cc1C(F)(F)F (centres unmarked) [F77, (Z)-4-(3-(3-Chloro-5-(trifluoromethyl)phenyl)-1,4,4,4-tetrafluorobut-1-en-1-yl)-N′-(pyrimidin-2-yl)-2-(trifluoromethyl)benzohydrazide] | – | 50 to 100 | 50 to 100
CC(C)CNNC(=O)c1ccc(/C(F)=C/C(c2cc(Cl)c(Cl)c(Cl)c2)C(F)(F)F)cc1C(F)(F)F (centres unmarked) [F157, (Z)—N′-Isobutyl-4-(1,4,4,4-tetrafluoro-3-(3,4,5-trichlorophenyl)but-1-en-1-yl)-2-(trifluoromethyl)benzohydrazide] | – | 50 to 100 | 50 to 100
CCc1cnc(NNC(=O)c2ccc(/C(F)=C/C(c3cc(Cl)c(Cl)c(Cl)c3)C(F)(F)F)cc2C(F)(F)F)nc1 (centres unmarked) [F84, (Z)—N′-(5-Ethylpyrimidin-2-yl)-4-(1,4,4,4-tetrafluoro-3-(3,4,5-trichlorophenyl)but-1-en-1-yl)-2-(trifluoromethyl)benzohydrazide] | – | 50 to 100 | 50 to 100
O=C(NNc1ccnnc1)c1ccc(/C(F)=C/C(c2cc(Cl)c(Cl)c(Cl)c2)C(F)(F)F)cc1C(F)(F)F (centres unmarked) [F33, (Z)—N′-(Pyridazin-4-yl)-4-(1,4,4,4-tetrafluoro-3-(3,4,5-trichlorophenyl)but-1-en-1-yl)-2-(trifluoromethyl)benzohydrazide] | – | 50 to 100 | 50 to 100
O=C(NNc1ncccn1)c1ccc(/C(F)=C/C(c2cc(Br)c(Cl)c(Br)c2)C(F)(F)F)cc1C(F)(F)F (centres unmarked) [F185, (Z)-4-(3-(3,5-Dibromo-4-chlorophenyl)-1,4,4,4-tetrafluorobut-1-en-1-yl)-N′-(pyrimidin-2-yl)-2-(trifluoromethyl)benzohydrazide] | – | 50 to 100 | 50 to 100
